16 compounds from US11680056B2, “MK2 inhibitors and uses thereof” (Xinthera, Inc., priority 2021, dated 2023) can be followed below.

Where two headings read alike, the source gives them in different places. Where only a bound is given, the exact number is not on record here.

In one assay the target is p38a/PRAK (Homo sapiens (Human), UniProt Q16539). Kind of assay: p38a/PRAK biochemical assay: activation of PRAK by p38, FITC-HSP27 peptide phosphorylation (IMAP FP). Conditions: 10-point 1:3 dilution, top dose 300 μM; 60 pM active p38a, 1 nM inactive PRAK, 10 μM ATP, 2 h incubation; read-out: p38a/PRAK Enzyme pIC50 (converted). As for the experimental part:
(§1) Expression vectors of the recombinant MK2 and PRAK kinases were constructed by cloning of the codon optimized gene sequences of MK2 (Uniprot ID P49137, amino acid fragment F46-H400), or PRAK (Uniprot ID Q81W41, amino acid fragment M1-Q471) into pGEX-4T1 (GE) for over expression of these kinases with N-terminal GST-tag. Protein expression was carried out in E. coli BL21 by growing the hosts in TB medium, induction of protein expression with 0.5 mM IPTG at approximate 0.8 OD600, and incubation of the cultures at 18° C. for 14-20 hours afterwards. The harvested cells were resuspended in […] of Lysis buffer (50 mM Tris-HCl, pH 8.0, 500 mM NaCl, 1 mM DTT, 5% glycerol, and 1 mM PMSF) per gram of wet cell mass and homogenized at 4° C. in a microfluidizer (ATS, Suzhou, China) at 14,000 psi pressure, 3 passes. The cell lysates were clarified by centrifugation and the supernatants containing the GST-fusion proteins were purified by affinity chromatography using GSH-Sepharose (GE) gravity flow columns pre-equilibrated in Buffer A (50 mM Tris-HCl, pH 8.0, 500 mM NaCl, 1 mM DTT, and 5% glycerol). After thorough washing of the columns with Buffer A, the bound GST-proteins were eluted by Buffer B (50 mM Tris, pH 8.0, 500 mM NaCl, 1 mM DTT, 5% glycerol, 10 mM glutathione), followed by size-exclusion purification on Superdex 200 column equilibrated in Buffer A. The purified proteins were concentrated to approximately 1 mg/ml and stored at −80° C.
This study evaluates the inhibitory potency of invention compound on p38/MK2 pathway vs p38/PRAK pathway. More specially the compound concentration (IC50) was determined that inhibited half of the maximal activation of MK2 or PRAK by p38. MK2 activation study was set up without or with a serial of 10-point 1:3 dilution of invention compound at top dose of […], and PRAK activation study was set up without or with a serial of 10-point 1:3 dilution of invention compound at top dose of 300 μM. The MK2 and PRAK activity were determined by the phosphorylation level of HSP27 peptide conjugated with FITC.
(§2) After 2 h incubation of the reaction mixture with various concentration of invention compound (200 nL), 60 μL 1×IMAP solution Mixture (Molecular Devices, Cat R8127) was added to the reaction mixture and incubated for another half hour. The signal was then read by Synergy™ Neo2 Multi-Mode Microplate Reader with filter setting (Ex/Em=485 nm/FITC FP-P pol 528 nm & FITC FP-S pol 528 nm)
(§3) The signal was then normalized to vehicle control and fitted in Xfit to generate IC50. The selectivity of MK2 over PRAK was calculated by the formular Selectivity=IC50 of PRAK/IC50 of MK2.

For another assay, the target named is p38a/MK2 (Homo sapiens (Human), UniProt P49137+Q16539). Briefly: p38a/MK2 biochemical assay: activation of MK2 by p38, FITC-HSP27 peptide phosphorylation (IMAP FP). Conditions: 10-point 1:3 dilution, 60 pM active p38a, 1 nM inactive MK2, 10 μM ATP, 2 h incubation. As for the experimental part: as §1
Sequence of p38a/MK2 (P49137 46-400): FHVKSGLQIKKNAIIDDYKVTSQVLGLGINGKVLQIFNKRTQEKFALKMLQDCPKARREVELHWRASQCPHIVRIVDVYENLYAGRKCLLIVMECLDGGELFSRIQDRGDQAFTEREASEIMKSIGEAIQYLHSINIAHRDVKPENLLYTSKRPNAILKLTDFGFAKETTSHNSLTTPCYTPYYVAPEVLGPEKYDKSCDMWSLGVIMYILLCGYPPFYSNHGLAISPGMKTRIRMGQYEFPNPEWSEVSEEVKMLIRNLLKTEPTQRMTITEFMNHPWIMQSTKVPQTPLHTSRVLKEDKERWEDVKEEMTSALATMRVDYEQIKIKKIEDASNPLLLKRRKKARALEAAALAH
Sequence of p38a/MK2 (Q16539 whole entry): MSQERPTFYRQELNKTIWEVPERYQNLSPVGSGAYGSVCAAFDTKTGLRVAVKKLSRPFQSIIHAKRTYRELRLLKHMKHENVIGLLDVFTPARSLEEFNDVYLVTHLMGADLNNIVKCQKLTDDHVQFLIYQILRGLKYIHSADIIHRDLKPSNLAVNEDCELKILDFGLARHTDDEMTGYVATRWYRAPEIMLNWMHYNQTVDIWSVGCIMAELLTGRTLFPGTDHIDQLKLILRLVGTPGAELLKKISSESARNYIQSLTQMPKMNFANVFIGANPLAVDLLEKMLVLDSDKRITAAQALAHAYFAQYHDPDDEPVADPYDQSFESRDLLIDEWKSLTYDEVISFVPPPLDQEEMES
This study evaluates the inhibitory potency of invention compound on p38/MK2 pathway vs p38/PRAK pathway. More specially the compound concentration (IC50) was determined that inhibited half of the maximal activation of MK2 or PRAK by p38. MK2 activation study was set up without or with a serial of 10-point 1:[…], and PRAK activation study was set up without or with a serial of 10-point 1:3 dilution of invention compound at top dose of 300 μM. The MK2 and PRAK activity were determined by the phosphorylation level of HSP27 peptide conjugated with FITC.
as §2, §3

The mark [1] stands for this setting: top dose 1 μM, read-out: p38a/MK2 (1 μM) Enzyme pIC50 (converted).
Setting [2] is: top dose 10 μM, read-out: p38a/MK2 (10 μM) Enzyme pIC50 (converted).

Sequence of p38a/PRAK (Q16539 whole entry, the tested form may be a part): as the sequence (Q16539 whole entry) above

For the compound `Cc1cnc(-c2ccnc(CC3(O)CC3)n2)cc1-n1c(C)cc(OCc2ncc(F)cc2F)c(Cl)c1=O` (single isomer, unassigned) [Example 48A, rel-3-chloro-4-[(3,5-difluoropyridin-2-yl)methoxy]-2′-{2-[(1-hydroxycyclopropyl)methyl]pyrimidin-4-yl}-5′,6-dimethyl-[1,4′-bipyridin]-2-one], the figures for the IC50 at p38a/PRAK and at p38a/MK2 (setting [1]) were 2000 nM and 5.01 nM, respectively.
In the same order, the values of `Cc1cnc(-n2ccc(C(C)(C)O)n2)c(C)c1-n1c(C)cc(OCc2ncc(F)cc2F)c(Cl)c1=O` (single isomer, unassigned) [Example 50A, rel-3-chloro-4-[(3,5-difluoropyridin-2-yl)methoxy]-2′-[3-(2-hydroxypropan-2-yl)pyrazol-1-yl]-3′,5′,6-trimethyl-[1,4′-bipyridin]-2-one] are 10000 nM and 12.6 nM.
In the same order, the values of `Cc1cc(OCc2ncc(F)cc2F)c(Cl)c(=O)n1-c1cc(-c2ccnc(C(C)(C)O)n2)ncc1C1CC1` (single isomer, unassigned) [Example 40A, rel-3-chloro-5′-cyclopropyl-4-[(3,5-difluoropyridin-2-yl)methoxy]-2′-[2-(2-hydroxypropan-2-yl)pyrimidin-4-yl]-6-methyl-[1,4′-bipyridin]-2-one] are 15800 nM and 126 nM.
For `Cc1cnc(COc2cc(C)n(-c3cc(-c4ccnc(C(C)(C)O)n4)ncc3C)c(=O)c2Cl)c(F)c1` (single isomer, unassigned) [Example 23A, rel-3-chloro-4-[(3-fluoro-5-methylpyridin-2-yl)methoxy]-2′-[2-(2-hydroxypropan-2-yl)pyrimidin-4-yl]-5′,6-dimethyl-[1,4′-bipyridin]-2-one], in that order: 12600 nM and 3.16 nM.
In the case of `Cc1cnc(COc2cc(C)n(-c3cc(-c4ccnc(C(C)(C)O)n4)ncc3C)c(=O)c2Cl)c(F)c1` (single isomer, unassigned) [Example 23B, rel-3-chloro-4-[(3-fluoro-5-methylpyridin-2-yl)methoxy]-2′-[2-(2-hydroxypropan-2-yl)pyrimidin-4-yl]-5′,6-dimethyl-[1,4′-bipyridin]-2-one], the values for the IC50 at p38a/PRAK and on p38a/MK2 (setting [2]) were greater than 316000 nM and greater than 10000 nM, respectively.
For the compound `Cc1cnc(-c2ccnc(C(C)(C)O)c2)cc1-n1c(C)cc(OCc2ncc(F)cc2F)c(Cl)c1=O` (single isomer, unassigned) [Example 38B, rel-3-chloro-4-[(3,5-difluoropyridin-2-yl)methoxy]-2′-[2-(2-hydroxypropan-2-yl)pyridin-4-yl]-5′,6-dimethyl-[1,4′-bipyridin]-2-one], the IC50 is greater than 316000 nM at p38a/PRAK and greater than 1000 nM at p38a/MK2 (setting [1]).
For `Cc1cnc(-c2ccnc(C(C)(C)O)c2)cc1-n1c(C)cc(OCc2ncc(F)cc2F)c(Cl)c1=O` (single isomer, unassigned) [Example 38A, rel-3-chloro-4-[(3,5-difluoropyridin-2-yl)methoxy]-2′-[2-(2-hydroxypropan-2-yl)pyridin-4-yl]-5′,6-dimethyl-[1,4′-bipyridin]-2-one], in that order: 31600 nM and 100 nM.
As to `Cc1cnc(-c2ccnc(C(C)(C)CO)n2)cc1-n1c(C)cc(OCc2ncc(F)cc2F)c(Cl)c1=O` (atropisomer, axis not shown) [Example 4, 3-chloro-4-[(3,5-difluoropyridin-2-yl)methoxy]-2′-[2-(1-hydroxy-2-methylpropan-2-yl)pyrimidin-4-yl]-5′,6-dimethyl-[1,4′-bipyridin]-2-one], the IC50 on p38a/PRAK is 7940 nM. The “p38a/MK2 (10 μM) Enzyme pIC50” value at p38a/MK2 (top dose 10 μM) came to 7.8.
Take `Cc1cnc(-n2ccc(CC(C)(C)O)n2)cc1-n1c(C)cc(OCc2ncc(F)cc2F)c(Cl)c1=O` (single isomer, unassigned) [Example 46B, rel-3-chloro-4-[(3,5-difluoropyridin-2-yl)methoxy]-2′-[3-(2-hydroxy-2-methylpropyl)pyrazol-1-yl]-5′,6-dimethyl-[1,4′-bipyridin]-2-one]: the IC50 is greater than 316000 nM on p38a/PRAK and greater than 1000 nM on p38a/MK2 (setting [1]).
Turning to `Cc1cnc(-c2ccc3c(n2)[C@H](O)CC3)cc1-n1c(C)cc(OCc2ncc(F)cc2F)c(Cl)c1=O` (single isomer, unassigned) [Example 18D], the IC50 at p38a/PRAK was 3160 nM; at p38a/MK2 (setting [2]), 79.4 nM.
Regarding `Cc1cnc(-n2ccc(C(=O)NC3CC3)n2)cc1-n1c(C)cc(OCc2ncc(F)cc2F)c(Cl)c1=O` [Example 44A, rel-1-{3-chloro-4-[(3,5-difluoropyridin-2-yl)methoxy]-5′,6-dimethyl-2-oxo-[1,4′-bipyridin]-2′-yl}-N-cyclopropylpyrazole-3-carboxamide], the IC50 at p38a/PRAK was 6310 nM; on p38a/MK2 (setting [1]), 25.1 nM.
On to `Cc1cnc(-c2cccc(C(C)(C)O)n2)c(F)c1-n1c(C)cc(OCc2ncc(F)cc2F)c(Cl)c1=O` (single isomer, unassigned) [Example 63B, rel-3-chloro-4-[(3,5-difluoropyridin-2-yl)methoxy]-1-[3-fluoro-6′-(2-hydroxypropan-2-yl)-5-methyl-[2,2′-bipyridin]-4-yl]-6-methylpyridin-2-one], for which the IC50 at p38a/PRAK was 316 nM; at p38a/MK2 (setting [1]), 0.316 nM.
As for `Cc1cnc(-c2ccnc([C@](C)(O)C3CC3)n2)cc1-n1c(C)cc(OCc2ncc(F)cc2F)c(Cl)c1=O` (single isomer, unassigned) [Example 6C, rel-3-chloro-2′-[2-(1-cyclopropyl-1-hydroxyethyl)pyrimidin-4-yl]-4-[(3,5-difluoropyridin-2-yl)methoxy]-5′,6-dimethyl-[1,4′-bipyridin]-2-one], the IC50 at p38a/PRAK was greater than 316000 nM; at p38a/MK2 (setting [2]), 3160 nM.
Take `[2H]C([2H])(Oc1cc(C)n(-c2c(C)cnc(-c3ccnc(C(O)(C([2H])([2H])[2H])C([2H])([2H])[2H])n3)c2F)c(=O)c1Cl)c1ncc(F)cc1F` (single isomer, unassigned) [Example 67A, rel-3-chloro-4-((3,5-difluoropyridin-2-yl)methoxy-d2)-3′-fluoro-2′-(2-(2-hydroxypropan-2-yl-1,1,1,3,3,3-d6)pyrimidin-4-yl)-5′,6-dimethyl-2H-[1,4′-bipyridin]-2-one]: the values for the IC50 at p38a/PRAK and on p38a/MK2 (setting [1]) were 316 nM and 1.58 nM, respectively.
For the compound `Cc1cnc(-c2ccn(C(C)(C)CO)n2)cc1-n1c(C)cc(OCc2ncc(F)cc2F)c(Cl)c1=O` (single isomer, unassigned) [Example 25B, rel-3-chloro-4-[(3,5-difluoropyridin-2-yl)methoxy]-2′-[1-(1-hydroxy-2-methylpropan-2-yl)pyrazol-3-yl]-5′,6-dimethyl-[1,4′-bipyridin]-2-one], the IC50 on p38a/PRAK was greater than 316000 nM; on p38a/MK2 (setting [2]) it was 3160 nM.
`Cc1cnc(-c2ccnc(C(C)(C)O)n2)c(F)c1-n1c(C)cc(OCc2ncc(F)cc2F)c(Cl)c1=O` (single isomer, unassigned) [Example 53A, rel-3-chloro-4-[(3,5-difluoropyridin-2-yl)methoxy]-3′-fluoro-2′-[2-(2-hydroxypropan-2-yl)pyrimidin-4-yl]-5′,6-dimethyl-[1,4′-bipyridin]-2-one]: the IC50 on p38a/PRAK was greater than 316000 nM; on p38a/MK2 (setting [1]) it was greater than 1000 nM.
